Results from patent US20090042964A1, “AMINO-5-[SUBSTITUTED-4-(DIFLUOROMETHOXY)PHENYL]-5-PHENYLIMIDAZOLONE COMPOUNDS AS BETA-SECRETASE INHIBITORS” (Wyeth, priority 2007, published 2009).

biological target: human BACE1 (Homo sapiens, UniProt P56817); experiment: Fluorescent kinetic assay, evaluation of BACE1 binding affinity of test compounds; format: biochemical; details: 10 nM human BACE1, 25 μM substrate WABC-6, pH 4.5, room temperature; read-out: BACE1 IC50
Description: Concentration is determined by absorbance at 354 nm using an extinction coefficient of 18172 M^-1 cm^-1, the concentration of stock substrate is corrected, and the substrate stock stored in small aliquots in -80° C. […] Determination of Stock Enzyme Concentration: the stock concentration of each enzyme is determined by absorbance at 280 nm using an of 64150 M^-1 cm^-1 for hBACE1 and MuBACE1, 62870 M^-1 cm^-1 for hBACE2 in 6 M Guanidinium Hydrochloride (from Research Organics, Cat. # 5134G-2), pH 6. […] Biochem. 182, 319-326). Dilution and mixing steps: total reaction volume: 100 μL 2× inhibitor dilutions in buffer A (66.7 mM Na-Acetate, pH 4.5, 0.0667% CHAPS) were prepared, 4× enzyme dilution in buffer A (66.7 mM Na-Acetate, pH 4.5, 0.0667% CHAPS) were prepared, 100 μM substrate dilution in 1×PBS was prepared, and 50 μL 2× Inhibitor, 25 μL 100 μM substrate are added to each well of 96-well plate (from DYNEX Technologies, VWR #: 11311-046), immediately followed by 25 μL 4× enzyme (added to the inhibitor and substrate mix), and the fluorescence readings are initiated.

Chain of human BACE1 (P56817 46-501): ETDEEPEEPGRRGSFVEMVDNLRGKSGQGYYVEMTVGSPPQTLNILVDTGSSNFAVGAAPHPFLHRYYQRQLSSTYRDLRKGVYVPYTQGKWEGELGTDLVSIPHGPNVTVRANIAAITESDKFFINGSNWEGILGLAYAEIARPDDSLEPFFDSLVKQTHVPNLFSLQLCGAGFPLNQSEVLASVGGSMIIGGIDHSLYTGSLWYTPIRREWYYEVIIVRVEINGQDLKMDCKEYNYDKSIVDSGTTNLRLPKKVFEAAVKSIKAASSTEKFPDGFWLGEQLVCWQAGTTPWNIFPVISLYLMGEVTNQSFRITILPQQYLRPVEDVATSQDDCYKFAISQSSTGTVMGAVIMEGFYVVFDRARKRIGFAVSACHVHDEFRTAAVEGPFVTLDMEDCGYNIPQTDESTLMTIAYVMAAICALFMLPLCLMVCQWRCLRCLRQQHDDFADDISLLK

“2-Amino-5-[3-chloro-4-(difluoromethoxy)phenyl]-3-methyl-5-phenyl-3,5-dihydro-4H-imidazol-4-one [Example 16]” and “2-Amino-5-[4-(difluoromethoxy)-3-(fluoromethyl)phenyl]-3-methyl-5-phenyl-3,5-dihydro-4H-imidazol-4-one [Example 14]” fall in the same range of IC50: 0.11 to 1 µM for the first, 0.11 to 1 µM for the second.

Compared with CCCC#Cc1cc([C@]2(c3ccc(OC(F)F)c(C)c3)N=C(N)N(C)C2=O)ccc1F (single isomer, unassigned) [Example 73], CN1C(=O)[C@](c2ccccc2)(c2ccc(OC(F)F)c(CCF)c2)N=C1N (single isomer, unassigned) [Example 75] is lower in IC50: 0.11 to 1 µM for the first, < 0.1 µM for the second. The second is the more potent here.

Going from CN1C(=O)[C@@](c2ccccc2)(c2ccc(OC(F)F)c(CCF)c2)N=C1N (single isomer, unassigned) [Example 76] to CCCc1cc([C@]2(c3ccccc3)N=C(N)N(C)C2=O)ccc1OC(F)F (single isomer, unassigned) [Example 79], the IC50 falls from > 1 µM to < 0.1 µM.

First: CCCc1cc([C@]2(c3ccccc3)N=C(N)N(C)C2=O)ccc1OC(F)F (single isomer, unassigned) [Example 80]
Second: CCC#Cc1cc([C@@]2(c3ccc(OC(F)F)c(C)c3)N=C(N)N(C)C2=O)ccc1F (single isomer, unassigned) [Example 83]
The IC50 of the first is higher: > 1 µM for the first, < 0.1 µM for the second. The second is the more potent here.

First: CCC#Cc1cc([C@]2(c3ccc(OC(F)F)c(C)c3)N=C(N)N(C)C2=O)ccc1F (single isomer, unassigned) [Example 84]
Second: CN1C(=O)[C@](c2ccc(F)c(OCCCF)c2)(c2ccc(OC(F)F)c(C3CC3)c2)N=C1N (single isomer, unassigned) [Example 86]
The IC50 of the first is higher: 0.11 to 1 µM for the first, < 0.1 µM for the second.

First: CN1C(=O)[C@@](c2ccc(F)c(OCCCF)c2)(c2ccc(OC(F)F)c(C3CC3)c2)N=C1N (single isomer, unassigned) [Example 87]
Second: CN1C(=O)[C@](c2ccc(F)c(C#CC3CC3)c2)(c2ccc(OC(F)F)c(CCF)c2)N=C1N (single isomer, unassigned) [Example 93]
The IC50 of the first is higher: > 1 µM for the first, < 0.1 µM for the second. The second is the more potent here.

First: CN1C(=O)[C@@](c2ccc(F)c(C#CC3CC3)c2)(c2ccc(OC(F)F)c(CCF)c2)N=C1N (single isomer, unassigned) [Example 94]
Second: CN1C(=O)[C@](c2cccc(Br)c2)(c2ccc(OC(F)F)c(C3CC3)c2)N=C1N (single isomer, unassigned) [Example 165]
The IC50 of the first is higher: 0.11 to 1 µM for the first, < 0.1 µM for the second.

First: CN1C(=O)[C@@](c2cccc(Br)c2)(c2ccc(OC(F)F)c(C3CC3)c2)N=C1N (single isomer, unassigned) [Example 166]
Second: CC#Cc1cccc([C@@]2(c3ccc(OC(F)F)c(C4CC4)c3)N=C(N)N(C)C2=O)c1 (single isomer, unassigned) [Example 169]
The IC50 of the first is higher: > 1 µM for the first, < 0.1 µM for the second.

First: CC#Cc1cccc([C@]2(c3ccc(OC(F)F)c(C4CC4)c3)N=C(N)N(C)C2=O)c1 (single isomer, unassigned) [Example 170]
Second: CC(C)C#Cc1cccc([C@@]2(c3ccc(OC(F)F)c(C4CC4)c3)N=C(N)N(C)C2=O)c1 (single isomer, unassigned) [Example 174]
The IC50 of the first is higher: > 1 µM for the first, < 0.1 µM for the second.

Compared with CC(C)C#Cc1cccc([C@]2(c3ccc(OC(F)F)c(C4CC4)c3)N=C(N)N(C)C2=O)c1 (single isomer, unassigned) [Example 175], CN1C(=O)[C@](c2cccc(C#CC3CC3)c2)(c2ccc(OC(F)F)c(C3CC3)c2)N=C1N (single isomer, unassigned) [Example 177] is lower in IC50: > 1 µM for the first, < 0.1 µM for the second. The second is the more potent here.

Compared with CN1C(=O)[C@@](c2cccc(C#CC3CC3)c2)(c2ccc(OC(F)F)c(C3CC3)c2)N=C1N (single isomer, unassigned) [Example 178], COCC#Cc1cccc([C@@]2(c3ccc(OC(F)F)c(C4CC4)c3)N=C(N)N(C)C2=O)c1 (single isomer, unassigned) [Example 181] is lower in IC50: 0.11 to 1 µM for the first, < 0.1 µM for the second. The second is the more potent here.

COCC#Cc1cccc([C@]2(c3ccc(OC(F)F)c(C4CC4)c3)N=C(N)N(C)C2=O)c1 (single isomer, unassigned) [Example 182] and COCCC#Cc1cccc([C@]2(c3ccc(OC(F)F)c(C4CC4)c3)N=C(N)N(C)C2=O)c1 (single isomer, unassigned) [Example 184] fall in the same range of IC50: 0.11 to 1 µM for the first, 0.11 to 1 µM for the second.

First: COCCC#Cc1cccc([C@@]2(c3ccc(OC(F)F)c(C4CC4)c3)N=C(N)N(C)C2=O)c1 (single isomer, unassigned) [Example 185]
Second: CN1C(=O)[C@@](c2cccc(C#CCCCO)c2)(c2ccc(OC(F)F)c(C3CC3)c2)N=C1N (single isomer, unassigned) [Example 189]
The IC50 of the first is lower: < 0.1 µM for the first, 0.11 to 1 µM for the second.

CN1C(=O)[C@](c2cccc(C#CCCCO)c2)(c2ccc(OC(F)F)c(C3CC3)c2)N=C1N (single isomer, unassigned) [Example 190] and CN1C(=O)[C@](c2cccc(C#CCCCF)c2)(c2ccc(OC(F)F)c(C3CC3)c2)N=C1N (single isomer, unassigned) [Example 192] cannot be ordered by IC50: < 0.1 µM for the first, < 0.1 µM for the second.

First: CN1C(=O)[C@@](c2cccc(C#CCCCF)c2)(c2ccc(OC(F)F)c(C3CC3)c2)N=C1N (single isomer, unassigned) [Example 193]
Second: CCCOc1cc(C2(c3ccc(OC(F)F)c(C)c3)N=C(N)N(C)C2=O)ccc1F (stereo in doubt) [Example 116, (5S)-2-Amino-5-[4-(difluoromethoxy)-3-methylphenyl]-5-(4-fluoro-3-propoxyphenyl)-3-methyl-3,5-dihydro-4H-imidazol-4-one]
The IC50 of the first is higher: 0.11 to 1 µM for the first, < 0.1 µM for the second. The second is the more potent here.

CCc1cc(C2(c3ccc(F)c(OCCCF)c3)N=C(N)N(C)C2=O)ccc1OC(F)F (stereo in doubt) [Example 122, (5S)-2-Amino-5-[4-(difluoromethoxy)-3-ethylphenyl]-5-[4-fluoro-3-(3-fluoropropoxy)phenyl]-3-methyl-3,5-dihydro-4H-imidazol-4-one] and CC(C)c1cc(C2(c3ccccc3)N=C(N)N(C)C2=O)ccc1OC(F)F (stereo in doubt) [Example 138, (5R)-2-Amino-5-[4-(difluoromethoxy)-3-isopropylphenyl]-3-methyl-5-phenyl-3,5-dihydro-4H-imidazol-4-one] cannot be ordered by IC50: < 0.1 µM for the first, < 0.1 µM for the second.

First: CC(C)c1cc(C2(c3ccccc3)N=C(N)N(C)C2=O)ccc1OC(F)F (stereo in doubt) [Example 139, (5S)-2-Amino-5-[4-(difluoromethoxy)-3-isopropylphenyl]-3-methyl-5-phenyl-3,5-dihydro-4H-imidazol-4-one]
Second: Cc1cc(C2(c3ccc(F)cc3)N=C(N)N(C)C2=O)ccc1OC(F)F (stereo not shown) [Example 3, 2-Amino-4-(4-(difluoromethoxy)-3-methylphenyl)-4-(4-fluorophenyl)-1-methyl-1H-imidazol-5(4H)-one]
The IC50 of the first is higher: > 1 µM for the first, 0.11 to 1 µM for the second.

First: Cc1cc([C@]2(c3ccc(F)cc3)N=C(N)N(C)C2=O)ccc1OC(F)F [Example 4A, (5S)-2-Amino-4-(4-(difluoromethoxy)-3-methylphenyl)-4-(4-fluorophenyl)-1-methyl-1H-imidazol-5(4H)-one]
Second: Cc1cc([C@@]2(c3ccc(F)cc3)N=C(N)N(C)C2=O)ccc1OC(F)F [Example 4B, (5R)-2-Amino-4-(4-(difluoromethoxy)-3-methylphenyl)-4-(4-fluorophenyl)-1-methyl-1H-imidazol-5(4H)-one]
The IC50 of the first is higher: > 1 µM for the first, 0.11 to 1 µM for the second. The second is the more potent here.

same assay, conditions: BACE1 IC50 μM, 10 nM human BACE1, 25 μM substrate WABC-6, pH 4.5, room temperature

Cc1cc(C2(c3ccccc3)N=C(N)N(C)C2=O)cc(C)c1OC(F)F (stereo not shown) [Example 5, 2-Amino-5-[4-(difluoromethoxy)-3,5-dimethylphenyl]-3-methyl-5-phenyl-3,5-dihydro-4H-imidazol-4-one] and CCc1cc(C2(c3ccccc3)N=C(N)N(C)C2=O)ccc1OC(F)F (stereo not shown) [Example 6, 2-Amino-5-[4-(difluoromethoxy)-3-ethylphenyl]-3-methyl-5-phenyl-3,5-dihydro-4H-imidazol-4-one] fall in the same range of IC50: 0.11 to 1 µM for the first, 0.11 to 1 µM for the second.

CCc1cc(C2(c3ccc(F)cc3)N=C(N)N(C)C2=O)ccc1OC(F)F (stereo not shown) [Example 7, 2-Amino-4-[4-(difluoromethoxy)-3-ethylphenyl]-4-(4-fluorophenyl)-1-methyl-1H-imidazol-5(4H)-one] and CCCc1cc(C2(c3ccccc3)N=C(N)N(C)C2=O)ccc1OC(F)F (stereo not shown) [Example 8, 2-Amino-5-[4-(difluoromethoxy)-3-propylphenyl]-3-methyl-5-phenyl-3,5-dihydro-4H-imidazol-4-one] fall in the same range of IC50: 0.11 to 1 µM for the first, 0.11 to 1 µM for the second.

First: CN1C(=O)C(c2ccccc2)(c2ccc(OC(F)F)c(C3CC3)c2)N=C1N (stereo not shown) [Example 10, 2-Amino-5-[3-cyclopropyl-4-(difluoromethoxy)phenyl]-3-methyl-5-phenyl-3,5-dihydro-4H-imidazol-4-one]
Second: C=Cc1cc(C2(c3ccccc3)N=C(N)N(C)C2=O)ccc1OC(F)F (stereo not shown) [Example 11, 2-Amino-5-[4-(difluoromethoxy)-3-vinylphenyl)-3-methyl-5-phenyl-3,5-dihydro-4H-imidazol-4-one]
The IC50 of the first is lower: < 0.1 µM for the first, 0.11 to 1 µM for the second. The first is the more potent here.

same assay, conditions: read-out: BACE1 IC50 μM; 10 nM human BACE1, 25 μM substrate WABC-6, pH 4.5, room temperature

In the case of CC(C)c1cc(C2(c3ccccc3)N=C(N)N(C)C2=O)ccc1OC(F)F (stereo not shown) [Example 9, 2-Amino-5-[4-(difluoromethoxy)-3-isopropylphenyl]-3-methyl-5-phenyl-3,5-dihydro-4H-imidazol-4-one], the IC50 is reported as 0.11 to 1 µM.
